Read-outs that look alike come from different tables or passages of the source.
Assay: Bioassay: distribution of I-123-labeled compounds in organs of rats after tail vein injection (percent dose/gram, brain/blood ratio)
Format: in vivo, Female Sprague-Dawley rats
Conditions: for Brain/Blood Ratio 5 min. / tissue uptake at 5 min: 5 minutes post-injection; for Brain/Blood Ratio 60 min. / tissue uptake at 1 h: 60 minutes post-injection; for tissue uptake at 5 min / tissue uptake at 1 h: rat, iv, 0.05 to 1.0 mCi, two rats
Protocol: Female Sprague-Dawley rats weighing approximately 150 g were anesthetized with sodium pentobarbital and were injected in a tail vein with from 0.05 to 1.0 mCi (in a volume of 0.2 to 0.5 ml) of the I-123-labeled compound. Two specimens were utilized for each test.
Two animals each were sacrificed at 5 minutes and 60 minutes post-injection, the tails discarded and the amount of activity in various organs determined. Each organ was counted at a standardized geometry with a sodium iodide crystal scintillation counter adjusted for the 159 keV emission of I-123. The organs were also weighed to one thousandth of a gram and the activity calculated as a percent of administered dose per gram of organ weight.
The ratio of brain-to-blood activity was calculated as a percent of administered dose per gram.

[1] = blood, read-out: Percent Dose/Gram Blood 5 min.
[2] = blood, read-out: Percent Dose/Gram Blood 60 min.
[3] = brain, read-out: Percent Dose/Gram Brain 5 min.
[4] = brain, read-out: Percent Dose/Gram Brain 60 min.
[5] = heart, read-out: Percent Dose/Gram Heart 5 min.
[6] = heart, read-out: Percent Dose/Gram Heart 60 min.

Compound	Brain/Blood Ratio 5 min.	Brain/Blood Ratio 60 min.	tissue uptake at 5 min [1] [%ID/g]	tissue uptake at 1 h [2] [%ID/g]	tissue uptake at 5 min [3] [%ID/g]	tissue uptake at 1 h [4] [%ID/g]	tissue uptake at 5 min [5] [%ID/g]	tissue uptake at 1 h [6] [%ID/g]
CC(Cc1ccccc1)Nc1ccccc1[123I] (racemic) [I--123-N--(o-iodophenyl)amphetamine (dl)]	1.81	0.75	0.53	0.55	0.96	0.41	1.64	0.57
CC(Cc1ccccc1)NCCc1ccccc1[123I] (racemic) [I--123-N--o-iodo-β-phenethylamphetamine (dl)]	7.13	7.86	0.12	0.11	0.82	0.83	2.02	0.48
CC(Cc1ccccc1)NCc1ccccc1[123I] (racemic) [I--123-N--o-iodobenzylamphetamine (dl)]	3.93	1.89	0.27	0.19	1.06	0.36	0.72	0.37
CCN(Cc1ccccc1I)Cc1ccccc1[123I] [I--123-N,N--di-o-iodobenzylethylamine]	0.68	0.88	0.52	0.28	0.36	0.25	2.11	0.5
[123I]c1ccccc1CCN(CCc1ccccc1)CCc1ccccc1 [I--123-N,N--di-β-phenethyl-o-iodo-β-phenethylamine]	0.24	0.17	0.83	0.65	0.2	0.11	1.18	0.62
[123I]c1ccccc1CN(CCc1ccccc1)CCc1ccccc1 [I--123-N,N--di-β-phenethyl-o-iodobenzylamine]	1.03	–	1.03	–	1.06	–	3.61	–
[123I]c1ccc(N(Cc2ccccc2)Cc2ccccc2)cc1 [I--123-N,N--dibenzyl-p-iodoaniline]	0.53	0.54	0.66	0.41	0.35	0.22	2.1	0.46
CC(C)N(Cc1ccccc1[123I])C(C)C [I--123-N,N--diisopropyl-o-iodobenzylamine]	5.73	1.31	0.25	0.35	1.4	0.46	2.12	0.46
Cc1cccc(C)c1NC(=O)CNCCc1ccccc1[123I] [I--123-N--(2,6-dimethylphenylcarbamoyl)methyl-o-iodo-β-phenethylamine]	1.33	0.31	0.55	0.26	0.73	0.08	0.74	0.21
[123I]c1ccccc1NCc1ccccc1 [I--123-N--benzyl-o-iodoaniline]	2.23	0.80	0.3	0.36	0.67	0.29	0.34	1.25
[123I]c1ccc(NCc2ccccc2)cc1 [I--123-N--benzyl-p-iodoaniline]	1.57	0.51	1	0.86	1.57	0.44	1.28	0.59
CCNCc1ccccc1[123I] [I--123-N--ethyl-o-iodobenzylamine]	4.22	1.31	0.25	0.34	1.06	0.44	0.79	0.44
CC(C)NCc1cccc([123I])c1 [I--123-N--isopropyl-m-iodobenzylamine]	7.35	4.16	0.22	0.21	1.61	0.85	0.99	0.46
CC(C)NCCc1ccccc1[123I] [I--123-N--isopropyl-o-iodo-β-phenethylamine]	8.58	5.83	0.12	0.12	1.03	0.67	0.88	0.27
CC(C)Nc1ccccc1[123I] [I--123-N--isopropyl-o-iodoaniline]	1.13	0.26	0.78	0.5	0.88	0.13	0.75	0.29
CC(C)NCc1ccccc1[123I] [I--123-N--isopropyl-o-iodobenzylamine, I-123-N-isopropyl-o-iodobenzylamine]	7.63	1.04	0.16	0.62	1.21	0.64	0.72	0.47
CC(C)Nc1ccc([123I])cc1 [I--123-N--isopropyl-p-iodoaniline]	2.55	0.33	0.48	0.79	1.23	0.26	1.01	0.61
CNCCc1ccccc1[123I] [I--123-N--methyl-o-iodo-β-phenethylamine]	0.49	–	1.16	–	0.57	–	1.07	–
[123I]c1ccccc1CCN1CCCCC1 [I--123-N--o-iodo-β-phenethylpiperidine]	2.35	–	0.46	–	1.08	–	1.68	–
CC1CCC(C)N1Cc1ccccc1[123I] (stereo not shown) [I--123-N--o-iodobenzyl-2,5-dimethylpyrrolidine]	3.17	1.52	0.37	0.15	1.16	0.22	1.03	0.46
CC1CCCC(C)N1Cc1ccccc1[123I] (stereo not shown) [I--123-N--o-iodobenzyl-2,6-dimethylpiperidine]	3.32	1.59	0.31	0.21	1.01	0.32	1.14	0.44
[123I]c1ccccc1CNc1ccccc1 [I--123-N--o-iodobenzylaniline]	1.70	0.41	0.61	0.41	1.02	0.17	0.83	0.31
[123I]c1ccccc1CN1CCCCC1 [I--123-N--o-iodobenzylpiperidine]	1.56	0.91	0.6	0.32	0.93	0.29	0.56	0.38
CCCNCCc1ccccc1[123I] [I--123-N--propyl-o-iodo-β-phenethylamine]	4.03	2.20	0.29	0.2	1.17	0.44	1.54	0.23
CCCNCc1ccccc1[123I] [I--123-N--propyl-o-iodobenzylamine]	3.81	1.84	0.27	0.32	1.03	0.59	0.77	0.59
CC(C)(C)NCc1ccccc1[123I] [I--123-N--t-butyl-o-iodobenzylamine, I-123-N-t-butyl-o-iodobenzylamine]	8.85	8.16	0.17	0.11	1.49	0.89	1.04	0.49

Source: US4360511A, “Amines useful as brain imaging agents” (Medi-Physics, Inc., priority 1980, dated 1982)
